# Measured values as given in publication PMC7899551, “Phase 1 study of Z-endoxifen in patients with advanced gynecologic, desmoid, and hormone receptor-positive solid tumors” (Oncotarget, 2021).
# Values joined by “and” are separate entries in the source; they are usually repeats but may differ in a detail not shown here. Equal entries are not always repeated. Where two headings read alike, the source gives them in different places.
# Test: Plasma pharmacokinetics of Z-endoxifen (HPLC assay, non-compartmental analysis)
# Type: in vivo, human
# Procedure: This was an open-label trial of Z-endoxifen in patients with advanced solid tumors (https://clinicaltrials.gov/ identifier: NCT01273168). Z-endoxifen-HCl was supplied by the Pharmaceutical Management Branch, National Cancer Institute, as 20 and 40 mg capsules; agent was administered orally once daily on a continuous schedule in 28-day cycles with a starting dose of 20 mg/day taken either 1 hour before or 2 hours after meals. Dose escalation followed a traditional 3+3 design in which patients were dose-escalated to the next dose level (DL) in cohorts of 3 patients until dose-limiting toxicity (DLT) was observed. DLT was defined as an adverse event that occurred during cycle 1, was thought to be related to study drug administration, and met one of the following criteria: grade ≥ 3 non-hematologic toxicities (except diarrhea, nausea and vomiting, alopecia, rising creatinine or electrolyte toxicities that resolved within 24 hours, or intolerable estrogen withdrawal symptoms) or grade ≥ 3 hematologic toxicities (except neutropenia lasting less than 5 days, lymphopenia, or anemia). Eight dose levels (DL1-8) were examined: 20, 40, 60, 100, 140, 200, 280, and 360 mg, respectively. Two patients at DL8 received the free base form of Z-endoxifen on day 1 rather than the hydrochloride salt to assess the pharmacokinetics of that formulation.
# A 3-mL blood sample was collected in a K2 EDTA tube on day 1 of cycle 1 before drug administration and at the following times post-first dose: 0.5, 1, 2, 3, 4, 6, 8, and 24 hours. Samples were collected at the same time points on day 28 of cycle 1 for DL1-6 until a protocol amendment eliminated the requirement for these samples at the higher dose levels. Samples were wrapped in aluminum foil after collection to protect from light exposure. A 10-mL aliquot of urine was collected before agent administration on cycle 1 day 1, for 24 hours after dosing on day 1, and before drug administration on cycle 2 day 1; samples were refrigerated prior to analysis.
# Plasma and urine concentrations of Z- and E-endoxifen were measured using a validated, post-column fluorescence derivatization HPLC assay. Non-compartmental pharmacokinetic parameters were calculated using WinNonlin version 7.0 (Pharsight Corp., Mountainview, CA, USA). A 2 μM Cmax target was established for day 28 plasma concentration. The amount of Z-endoxifen excreted in urine was measured over a 24-hour collection period.
# [1] = DL1 20 mg oral, day 1, individual patients, listed as Z-endoxifen HCl
# [2] = DL1 20 mg/day oral, day 28, individual patients, listed as Z-endoxifen HCl
# [3] = DL2 40 mg oral, day 1, individual patients, listed as Z-endoxifen HCl
# [4] = DL2 40 mg/day oral, day 28, individual patients, listed as Z-endoxifen HCl
# [5] = DL3 60 mg oral, day 1, individual patients, listed as Z-endoxifen HCl
# [6] = DL3 60 mg/day oral, day 28, individual patients, listed as Z-endoxifen HCl
# [7] = DL4 100 mg oral, day 1, individual patients, listed as Z-endoxifen HCl
# [8] = DL5 140 mg oral, day 1, individual patients, listed as Z-endoxifen HCl
# [9] = DL5 140 mg/day oral, day 28, individual patients, listed as Z-endoxifen HCl
# [10] = DL6 200 mg oral, day 1, individual patients, listed as Z-endoxifen HCl
# [11] = DL6 200 mg/day oral, day 28, individual patients, listed as Z-endoxifen HCl
# [12] = DL7 280 mg oral, day 1, individual patients, listed as Z-endoxifen HCl
# [13] = DL8 360 mg oral, day 1, individual patients, listed as Z-endoxifen HCl
smiles,measurement,setting,value
CC/C(=C(\c1ccc(O)cc1)c1ccc(OCCNC)cc1)c1ccccc1 [Z-endoxifen],AUC(0-24h),[1],1055 ng·h/mL and 1169 ng·h/mL
same,C24h,[1],32.6 ng/mL and 32.7 ng/mL
same,Cmax,[1],61.2 ng/mL and 67.7 ng/mL
same,AUC(0-24h),[2],4469 ng·h/mL and 5313 ng·h/mL
same,Adjusted Half-Life,[2],61.8 h and 67.0 h
same,C24h,[2],48.8 ng/mL and 139.6 ng/mL and 206.6 ng/mL
same,Cmax,[2],283.7 ng/mL and 374.1 ng/mL
same,Tmax,[2],0.0 h
same,AUC(0-24h),[3],1715 ng·h/mL and 1336 ng·h/mL and 1764 ng·h/mL and 2162 ng·h/mL
same,C24h,[3],43.6 ng/mL and 54.9 ng/mL and 33.7 ng/mL and 55.2 ng/mL and 75 ng/mL
same,Cmax,[3],121.1 ng/mL and 93.8 ng/mL and 102.3 ng/mL and 160.3 ng/mL
same,AUC(0-24h),[4],3871 ng·h/mL and 4832 ng·h/mL
same,Adjusted Half-Life,[4],36.6 h
same,C24h,[4],111.8 ng/mL and 194.5 ng/mL
same,Cmax,[4],231.8 ng/mL and 220.7 ng/mL
same,Tmax,[4],3.0 h
same,"Adjusted Half-Life, Mean","DL2 40 mg/day oral, day 28, mean",40.4 h
same,AUC(0-24h),[5],1953 ng·h/mL and 2836 ng·h/mL
same,C24h,[5],72.2 ng/mL and 86.2 ng/mL
same,Cmax,[5],109.0 ng/mL and 166.0 ng/mL
same,Tmax,[5],24.0 h and 6.1 h
same,AUC(0-24h),[6],3432 ng·h/mL and 9961 ng·h/mL and 10846 ng·h/mL
same,Adjusted Half-Life,[6],26.0 h and 76.2 h and 54.9 h
same,C24h,[6],169.4 ng/mL and 521.2 ng/mL and 345.6 ng/mL
same,Cmax,[6],199.6 ng/mL and 521.2 ng/mL and 531.1 ng/mL
same,Tmax,[6],0.5 h and 24.0 h
same,"Adjusted Half-Life, Mean","DL3 60 mg/day oral, day 28, mean",52.4 h
same,AUC(0-24h),[7],4834 ng·h/mL and 5511 ng·h/mL
same,C24h,[7],157 ng/mL and 175 ng/mL
same,Cmax,[7],301 ng/mL and 324 ng/mL
same,Cmax,"DL4 100 mg/day oral, day 28, individual patients, listed as Z-endoxifen HCl",719 ng/mL
same,AUC(0-24h),[8],7200 ng·h/mL and 14650 ng·h/mL and 7425 ng·h/mL
same,C24h,[8],209 ng/mL and 509 ng/mL and 216 ng/mL
same,Cmax,[8],380 ng/mL and 957 ng/mL and 494 ng/mL
same,AUC(0-24h),[9],16591 ng·h/mL
same,Adjusted Half-Life,[9],28.1 h
same,C24h,[9],528 ng/mL
same,Cmax,[9],1485 ng/mL and 881 ng/mL
same,Tmax,[9],3.0 h
same,AUC(0-24h),[10],12520 ng·h/mL and 8804 ng·h/mL
same,C24h,[10],457 ng/mL and 271 ng/mL
same,Cmax,[10],299 ng/mL and 760 ng/mL and 492 ng/mL
same,AUC(0-24h),[11],16690 ng·h/mL and 52925 ng·h/mL and 22641 ng·h/mL
same,Adjusted Half-Life,[11],61.6 h and 33.8 h
same,C24h,[11],787 ng/mL and 1814 ng/mL and 606 ng/mL
same,Cmax,[11],984 ng/mL and 2574 ng/mL and 1364 ng/mL
same,mean C24 h relative to the 5.9 ng/mL threshold associated with clinical benefit on tamoxifen,"DL6, Day 28",more than 180 fold
same,AUC(0-24h),[12],15935 ng·h/mL and 10460 ng·h/mL and 11355 ng·h/mL and 13153 ng·h/mL and 13081 ng·h/mL and 24217 ng·h/mL and 16532 ng·h/mL
same,C24h,[12],485 ng/mL and 345 ng/mL and 384 ng/mL and 467 ng/mL and 337 ng/mL and 687 ng/mL and 574 ng/mL
same,Cmax,[12],825 ng/mL and 715 ng/mL and 887 ng/mL and 796 ng/mL and 1395 ng/mL and 1007 ng/mL
same,Tmax,"DL8 360 mg oral, day 1, individual patients",3.0 h
same,AUC(0-24h),[13],32079 ng·h/mL and 21926 ng·h/mL and 23576 ng·h/mL and 20747 ng·h/mL and 22520 ng·h/mL and 9274 ng·h/mL and 13704 ng·h/mL
same,C24h,[13],1190 ng/mL and 722 ng/mL and 653 ng/mL and 801 ng/mL and 658 ng/mL and 213 ng/mL and 493 ng/mL
same,Cmax,[13],1841 ng/mL and 1352 ng/mL and 1374 ng/mL and 1432 ng/mL and 1437 ng/mL and 780 ng/mL and 948 ng/mL
same,Tmax,[13],3.0 h
same,"Cmax, Mean","HCl salt, 360 mg oral, day 2 (after free base on day 1), mean of patients 35 and 36",2360 ng/mL
same,AUC(0–24 h),"HCl salt, 360 mg oral, day 2 (after free base on day 1), patients 35 and 36 individually, listed as Z-endoxifen HCl",23709 ng·h/mL and 59421 ng·h/mL
same,plasma concentration achieved by all patients,all dose levels,> 5.97 ng/mL
same,AUC(0–24h) dependence on dose,"day 1, DL1-8",linear increase with dose
same,concentration at 24 h,"human, plasma, oral, 20 mg, DL1, calculated from C24h in ng/mL, read-out: Plasma concentration 24 hours after the first dose",67 nM
same,concentration at 28 day,"human, plasma, oral, 20 mg, DL1, read-out: day 28 trough concentration, range",48.8 to 207 ng/mL
same,concentration at 28 day,"human, plasma, oral, 20 mg/day, DL1 (20 mg/day), day 28, read-out: average plasma concentration",353 nM
same,concentration at 28 day,"human, plasma, oral, 360 mg, DL8, if accumulation similar to lower dose levels, read-out: estimated day 28 concentration",1220 ng/mL to 2970 ng/mL and 3.3 µM to 7.9 µM
same,concentration at 24 h,"human, plasma, oral, 360 mg, DL8, calculated from C24h in ng/mL, read-out: Plasma concentration 24 hours after the first dose",1810 nM
same,half-life,"human, plasma, oral, range over dose levels, read-out: elimination half-life (t½)",30.6 to 55.9 h
same,AUC(0-t),"human, plasma, po, 20 mg, DL1 20 mg oral, day 1, individual patients, read-out: AUC(0-24h)",1030 ng·h/mL
same,concentration at 24 h,"human, plasma, po, 20 mg, DL1 20 mg oral, day 1, individual patients, read-out: C24h",25.2 ng/mL
same,Cmax,"human, plasma, po, 20 mg, DL1 20 mg oral, day 1, individual patients, read-out: Cmax",76.9 ng/mL
same,Tmax,"human, plasma, po, 20 mg, DL1 20 mg oral, day 1, individual patients, read-out: Tmax",3 h
same,AUC(0-t),"human, plasma, po, 20 mg, DL1 20 mg oral, day 1, mean, read-out: AUC(0-24h), Mean",1080 ng·h/mL
same,concentration at 24 h,"human, plasma, po, 20 mg, DL1 20 mg oral, day 1, mean, read-out: C24h, Mean",30.2 ng/mL
same,Cmax,"human, plasma, po, 20 mg, DL1 20 mg oral, day 1, mean, read-out: Cmax, Mean",68.6 ng/mL
same,Tmax,"human, plasma, po, 20 mg, DL1 20 mg oral, day 1, mean, read-out: Tmax, Mean",3.7 h
same,AUC(0-t),"human, plasma, po, 20 mg/day, DL1 20 mg/day oral, day 28, individual patients, read-out: AUC(0-24h)",2960 ng·h/mL
same,half-life,"human, plasma, po, 20 mg/day, DL1 20 mg/day oral, day 28, individual patients, read-out: Adjusted Half-Life (converted)",38.9 h
same,Cmax,"human, plasma, po, 20 mg/day, DL1 20 mg/day oral, day 28, individual patients, read-out: Cmax",201 ng/mL
same,AUC(0-t),"human, plasma, po, 20 mg/day, DL1 20 mg/day oral, day 28, mean, read-out: AUC(0-24h), Mean",4250 ng·h/mL
same,half-life,"human, plasma, po, 20 mg/day, DL1 20 mg/day oral, day 28, mean, read-out: Adjusted Half-Life, Mean (converted)",55.9 h
same,concentration at 24 h,"human, plasma, po, 20 mg/day, DL1 20 mg/day oral, day 28, mean, read-out: C24h, Mean",132 ng/mL
